Tests used:
[1] = molecular target: T1, cloned human NE transporter (hNET) (Homo sapiens, UniProt P23975); assay: NE transporter binding assay, [3H]nisoxetine; conditions: membranes of CHO cells expressing hNET; read-out: NET Ki
T1 construct: expressed in transfected cells; host or cells: CHO cells
Procedure: Protocols. For the NE transporter binding assay, [^3H]nisoxetine (1.0 nM) was incubated with various concentrations of test compounds for 2 hours at 4° C. with membranes prepared from Chinese hamster ovary cells (CHO) cells heterologously expressing the cloned human NE transporter (hNET). Bound radioactivity was determined by scintillation spectroscopy.

[2] = molecular target: T2, cloned human 5HT2A receptor (Homo sapiens, UniProt P28223); assay: 5HT2A receptor binding assay, [3H]ketanserin; conditions: HEK-293 membranes
T2 construct: expressed in transfected cells; host or cells: HEK-293 cells
T2 sequence (P28223 whole entry): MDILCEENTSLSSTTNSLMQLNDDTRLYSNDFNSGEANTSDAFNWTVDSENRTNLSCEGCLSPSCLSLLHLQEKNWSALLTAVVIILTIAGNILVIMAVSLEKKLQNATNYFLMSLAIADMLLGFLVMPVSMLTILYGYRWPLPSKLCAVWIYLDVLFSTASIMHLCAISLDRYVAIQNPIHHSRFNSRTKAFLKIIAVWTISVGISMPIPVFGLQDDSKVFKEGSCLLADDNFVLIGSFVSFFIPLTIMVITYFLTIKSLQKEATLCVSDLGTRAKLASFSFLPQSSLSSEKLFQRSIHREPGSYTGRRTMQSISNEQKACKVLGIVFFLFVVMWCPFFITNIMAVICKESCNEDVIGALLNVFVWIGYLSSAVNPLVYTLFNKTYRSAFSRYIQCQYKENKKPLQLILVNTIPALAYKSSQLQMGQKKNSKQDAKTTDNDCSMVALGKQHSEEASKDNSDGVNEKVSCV
Procedure: For the 5HT2A receptor binding assay, [^3H]ketanserin (0.5 nM) was incubated for 60 min at 22° C. with membranes prepared from HEK-293 cells heterologously expressing the cloned human 5-HT2A receptor according to the method of Bonhaus et al., 1995, Brit. J. Pharmacol. 115:622-628. Various concentrations of test compound were added and bound radioactivity was determined by scintillation counting. Non-specific binding was determined in the presence of 1.0 μM unlabeled ketanserin. The Ki value for the test compound was determined using standard methods.

[3] = molecular target: T2, cloned human 5HT2A receptor; assay: 5HT2A functional assay, intracellular Ca2+ in HEK-293 cells; format: cell-based
Procedure: (§1) Agonist effects at the 5HT2A receptor were assessed by incubation at 22° C. of a series of concentrations of test compound with intact HEK-293 cells heterologously expressing the cloned human 5HT2A receptor and measuring intracellular [Ca^2+] by fluorimetry according to the method of Jerman et al., 2001, Eur. J. Pharmacol. 414:23-30). Antagonist effects were assessed by the ability of a series of concentrations of test compound to block the increase in intracellular [Ca^2+] that occurred in the presence of 3.0 nM serotonin under the same conditions. EC50 and IC50 values were determined using standard methods.

[4] = molecular target: T3, cloned human 5HT2B receptor (Homo sapiens, UniProt P41595); assay: 5HT2B receptor binding assay, [125I]DOI; conditions: CHO membranes
T3 construct: expressed in transfected cells; host or cells: CHO cells
T3 sequence (P41595 whole entry): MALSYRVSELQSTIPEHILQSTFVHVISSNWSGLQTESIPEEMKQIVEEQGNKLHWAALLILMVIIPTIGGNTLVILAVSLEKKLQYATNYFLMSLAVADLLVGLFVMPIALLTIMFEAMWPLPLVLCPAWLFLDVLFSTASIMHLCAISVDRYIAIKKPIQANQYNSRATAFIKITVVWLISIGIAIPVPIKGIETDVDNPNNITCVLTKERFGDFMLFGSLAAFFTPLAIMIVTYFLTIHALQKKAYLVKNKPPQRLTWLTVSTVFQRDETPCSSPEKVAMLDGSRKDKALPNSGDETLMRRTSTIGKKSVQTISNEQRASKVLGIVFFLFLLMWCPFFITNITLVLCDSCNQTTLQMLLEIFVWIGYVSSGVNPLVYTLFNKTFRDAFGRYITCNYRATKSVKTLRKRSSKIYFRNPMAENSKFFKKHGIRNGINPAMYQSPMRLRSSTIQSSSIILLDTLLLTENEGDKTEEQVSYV
Procedure: For the 5HT2B receptor binding assay, [^125I](±)[…] (DOI) (0.2 nM) was incubated for 15 min at 37° C. with membranes prepared from Chinese hamster ovary cells heterologously expressing the cloned human 5HT2B receptor according to the method of Choi et al., 1994, FEBS Lett 352:393-399. Various concentrations of test compound were added and bound radioactivity was determined by scintillation counting. Non-specific binding was determined in the presence of 1.0 μM unlabeled DOI. The Ki value for the test compound was determined using standard methods.

[5] = molecular target: T3, cloned human 5HT2B receptor; assay: 5HT2B functional assay, intracellular Ca2+ in CHO cells; format: cell-based
Procedure: as §1, with “5HT2B” for “5HT2A”, “CHO” for “HEK-293”, “Porter” for “Jerman”, “1991, Brit.” for “2001, Eur.”, “128:13-20.” for “414:23-30).”, “0.3” for “3.0”

[6] = molecular target: T4, cloned human 5HT2C receptor (Homo sapiens, UniProt P28335); assay: 5HT2C receptor binding assay, [3H]mesulergine; conditions: CHO membranes
T4 construct: expressed in transfected cells; host or cells: CHO cells
T4 sequence (P28335 33-458): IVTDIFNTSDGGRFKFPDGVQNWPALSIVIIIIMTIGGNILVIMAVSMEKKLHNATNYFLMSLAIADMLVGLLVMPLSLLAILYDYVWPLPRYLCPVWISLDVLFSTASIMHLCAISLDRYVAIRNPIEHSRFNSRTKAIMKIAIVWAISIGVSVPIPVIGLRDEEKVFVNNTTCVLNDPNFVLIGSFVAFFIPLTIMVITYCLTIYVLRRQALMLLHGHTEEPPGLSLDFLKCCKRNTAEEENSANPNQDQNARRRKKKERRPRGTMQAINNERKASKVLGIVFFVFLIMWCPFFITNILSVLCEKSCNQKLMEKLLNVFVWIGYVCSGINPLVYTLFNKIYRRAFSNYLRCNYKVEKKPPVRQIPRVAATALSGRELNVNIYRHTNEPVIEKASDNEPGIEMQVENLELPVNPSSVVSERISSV
Procedure: For the 5HT2C receptor binding assay, [^3H]mesulergine (1.0 nM) was incubated for 60 min at 37° C. with membranes prepared from Chinese hamster ovary cells heterologously expressing the cloned human 5-HT2C receptor according to the method of Stam et al., 1994, Eur. J. Pharmacol. 269:339-348. Various concentrations of test compound were added and bound radioactivity was determined by scintillation counting. Non-specific binding was determined in the presence of 10 μM RS102221. The Ki value for the test compound was determined using standard methods.

[7] = molecular target: T4, cloned human 5HT2C receptor; assay: 5HT2C functional assay, intracellular Ca2+ in CHO cells; format: cell-based
Procedure: as §1, with “5HT2C” for “5HT2A”, “CHO” for “HEK-293”, “414:23-30.” for “414:23-30).”

[8] = molecular target: T5, human recombinant CYP2D6 (Homo sapiens, UniProt P10635); assay: CYP2D6 inhibition, MAMC substrate; format: in vitro ADME
T5 construct: purchased BD Bioscience
T5 sequence (P10635 whole entry): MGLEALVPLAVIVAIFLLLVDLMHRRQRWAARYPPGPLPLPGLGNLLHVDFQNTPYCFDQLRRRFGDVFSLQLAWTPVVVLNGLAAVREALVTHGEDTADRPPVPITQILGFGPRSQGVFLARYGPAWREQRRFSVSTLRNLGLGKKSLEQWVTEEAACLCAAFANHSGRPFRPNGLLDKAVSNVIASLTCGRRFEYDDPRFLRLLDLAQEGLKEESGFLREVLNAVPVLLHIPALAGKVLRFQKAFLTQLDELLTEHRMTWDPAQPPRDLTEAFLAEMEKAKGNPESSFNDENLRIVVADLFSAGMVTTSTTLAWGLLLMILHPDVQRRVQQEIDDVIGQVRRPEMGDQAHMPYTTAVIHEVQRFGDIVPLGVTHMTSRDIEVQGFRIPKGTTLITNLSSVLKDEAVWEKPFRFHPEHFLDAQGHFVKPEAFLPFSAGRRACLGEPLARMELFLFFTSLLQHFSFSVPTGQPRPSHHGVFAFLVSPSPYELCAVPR
Procedure: Protocol. […] The source of the enzyme was microsomes containing human recombinant CYP2D6 obtained from BD Bioscience. Conversion of MAMC to 7-hydroxy-4-(aminomethyl)coumarin was measured using a PerkinElmer Fusion with a 390 nm excitation filter and a 460 nm emission filter.

[9] = tested on: noradrenaline reuptake in synaptosomes from rat and primate brain; conditions: published reports; cited from earlier work
[10] = molecular target: T6, 5HT2C receptor (Homo sapiens, UniProt P28335); conditions: published report; cited from earlier work
T6 sequence (P28335 33-458): T4 sequence (P28335 33-458)

[11] = tested on: noradrenergic, histaminergic and cholinergic receptors; conditions: published report; cited from earlier work
[12] = tested on: animal models of depression; conditions: preclinical; cited from earlier work
[13] = tested on: human volunteers; conditions: 25-400 mg, cited from earlier work
[14] = single doses of 10 to 500 mg; cited from earlier work
[15] = cited from earlier work
[16] = tested on: patients hospitalized for depression; conditions: phase IIA; cited from earlier work
[17] = tested on: major depression; conditions: human, in vivo; cited from earlier work
[18] = in vivo; cited from earlier work
[19] = antagonist mode, vs 3.0 nM serotonin

T1 sequence (P23975 whole entry): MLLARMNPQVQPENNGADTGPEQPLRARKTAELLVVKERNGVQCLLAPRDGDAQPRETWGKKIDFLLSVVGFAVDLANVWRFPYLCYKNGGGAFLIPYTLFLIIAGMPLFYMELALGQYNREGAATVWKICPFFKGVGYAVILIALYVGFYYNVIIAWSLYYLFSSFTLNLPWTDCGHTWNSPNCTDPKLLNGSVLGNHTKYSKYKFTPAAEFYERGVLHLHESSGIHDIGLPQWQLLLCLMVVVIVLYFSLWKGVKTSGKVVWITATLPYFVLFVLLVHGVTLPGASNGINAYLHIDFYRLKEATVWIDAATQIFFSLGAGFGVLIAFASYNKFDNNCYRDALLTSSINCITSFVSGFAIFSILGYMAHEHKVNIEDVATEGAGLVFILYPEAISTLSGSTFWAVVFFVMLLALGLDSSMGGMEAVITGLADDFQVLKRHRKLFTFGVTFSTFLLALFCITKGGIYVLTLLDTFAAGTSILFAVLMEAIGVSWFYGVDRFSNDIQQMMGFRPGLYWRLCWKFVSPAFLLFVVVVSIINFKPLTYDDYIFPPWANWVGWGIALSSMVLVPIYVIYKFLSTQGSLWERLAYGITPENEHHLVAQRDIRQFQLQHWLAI

Cc1cccc2c1Oc1ccccc1C1(O)CCN(C)CC21 (racemic) [(±)-beloxepin, cis-1,2,3,4,4a,13b-hexahydro-2,10-dimethyldiben-[2,3:6,7]oxepino[4,5c]pyridine-4a-ol]]
Ki [1]: 700 nM
Ki [2]: 440 nM
5HT2A functional activity type [3]: antagonist
IC50 [3, 19]: 5.2 µM
Ki [4]: 1000 nM
5HT2B functional activity type [5]: antagonist
IC50 ([5]; antagonist mode, vs 0.3 nM serotonin): > 10 µM
Ki [6]: 830 nM
5HT2C functional activity type [7]: antagonist
IC50 [7, 19]: > 10 µM
IC50 [8]: 536 nM
less affinity for other monoamine carriers (serotonin and dopamine transporters) than for noradrenaline reuptake [9]: greater than 100 fold
affinity for the 5HT2C receptor [10]: modest affinity
affinity for noradrenergic, histaminergic and cholinergic receptors [11]: no or very weak affinity
antidepressant properties [12]: offsetting acquired immobility behavior, reserpine-induced hypothermia, and conditioned avoidance behavior
side effects [12]: did not cause sedation, motor impairment or other untoward side effects
effect on REM sleep ([13]; acutely and sub-chronically): dose-dependently prolonged REM latency
side effects [13]: No sedation or other side effects were observed
tmax [14]: one to four
tmax, steady state ([15]; doses of 50 to 800 mg, healthy subjects): 1.17 h
adverse effects ([15]; healthy volunteers, up to 800 mg/day): No important adverse effects were observed
fraction of patients with a moderate to good response (HAMD score reduction) [16]: ⅔
efficacy in major depression [17]: insufficient efficacy
logBB [18]: 0.82
